Test results from patent US5342839A, “2-hydroxy-3-phenoxy-propyl-substituted piperazines, their preparation and use” (BASF Aktiengesellschaft, priority 1988, dated 1994).

What was measured:
[1] = Protection from global cerebral ischemia (survival time of mice after MgCl2); assay type: in vivo; conditions: female mice, i.p., before 0.1 ml of 80% strength MgCl2.6H2O solution; for ED50: Mus musculus, ip, read-out: Test 2 ED 50% (dose which increases survival time of the animals by 50%), global ischemia
Experimental: 2. Protection from global cerebral ischemia
Female mice (weight 24-27 g) received the active substance intraperitoneally before administration of 0.1 ml of an 80% strength solution (g/l) of MgCl2.6H2 O. Untreated control animals survive 24 sec. on average after administration of MgCl2. The dose of active substances which increases the survival time of the animals by 50% compared with placebo-treated animals was determined.

calcium channel = molecular target: T1, calcium channel (Cavia porcellus, UniProt A0A286X7I0); test: Affinity to the calcium channel: inhibition of specific (S)-3H-devapamil binding to guinea-pig skeletal muscle membranes; conditions: 1 nM (S)-3H-devapamil, pH 7.4, 20° C., 60 minutes, read-out: Test 3 Ki
T1 construct: guinea-pig skeletal muscle membranes; from tissue; host or cells: guinea-pig skeletal muscle membranes
Experimental: 3. Affinity of the test substances to the calcium channel.
The affinity of the test substances to the calcium channel was determined by inhibition of the specific (S)-^3 H-devapamil binding to guinea-pig skeletal muscle membranes (FEBS Lett. 176, 371 (1984)). For this, the membranes were incubated with a fixed concentration of 1 nM (S)-^3 H-devapamil and increasing concentrations of test substance in 50 mM tris-HCl/0.1 mM phenylmethylsulfonyl fluoride, (pH 7.4) at 20° C. for 60 minutes. The non-specific binding was determined using 10^-6 M (S)-devapamil. The mixtures were then filtered through glass fiber filters, and the amount of (S)-^3 H-devapamil retained on the filter was determined by liquid scintillation measurement. The Ki values were determined by non-linear regression analysis.

[2] = Protection from acute cerebral hypoxia (survival time of mice in 3.5 parts O2/96.5 parts N2); assay type: in vivo; conditions: female mice, i.p., hypoxia 3.5 parts oxygen/96.5 parts nitrogen; for ED50: Mus musculus, ip, read-out: Test 1 ED 50% (dose which increases survival time of the animals by 50%), hypoxia
Experimental: 1. Protection from acute cerebral hypoxia
Female mice (weight 22-28 g) were placed in a glass tube (diameter 6 cm) through which was passed a mixture of 3.5 parts of oxygen and 96.5 parts of nitrogen. Untreated control animals survived 138 sec. on average in a glass tube of this type. The dose of active substances which, after intraperitoneal administration thereof, increases the survival time of the animals by 50% was determined.

T1 sequence (A0A286X7I0 1-1867): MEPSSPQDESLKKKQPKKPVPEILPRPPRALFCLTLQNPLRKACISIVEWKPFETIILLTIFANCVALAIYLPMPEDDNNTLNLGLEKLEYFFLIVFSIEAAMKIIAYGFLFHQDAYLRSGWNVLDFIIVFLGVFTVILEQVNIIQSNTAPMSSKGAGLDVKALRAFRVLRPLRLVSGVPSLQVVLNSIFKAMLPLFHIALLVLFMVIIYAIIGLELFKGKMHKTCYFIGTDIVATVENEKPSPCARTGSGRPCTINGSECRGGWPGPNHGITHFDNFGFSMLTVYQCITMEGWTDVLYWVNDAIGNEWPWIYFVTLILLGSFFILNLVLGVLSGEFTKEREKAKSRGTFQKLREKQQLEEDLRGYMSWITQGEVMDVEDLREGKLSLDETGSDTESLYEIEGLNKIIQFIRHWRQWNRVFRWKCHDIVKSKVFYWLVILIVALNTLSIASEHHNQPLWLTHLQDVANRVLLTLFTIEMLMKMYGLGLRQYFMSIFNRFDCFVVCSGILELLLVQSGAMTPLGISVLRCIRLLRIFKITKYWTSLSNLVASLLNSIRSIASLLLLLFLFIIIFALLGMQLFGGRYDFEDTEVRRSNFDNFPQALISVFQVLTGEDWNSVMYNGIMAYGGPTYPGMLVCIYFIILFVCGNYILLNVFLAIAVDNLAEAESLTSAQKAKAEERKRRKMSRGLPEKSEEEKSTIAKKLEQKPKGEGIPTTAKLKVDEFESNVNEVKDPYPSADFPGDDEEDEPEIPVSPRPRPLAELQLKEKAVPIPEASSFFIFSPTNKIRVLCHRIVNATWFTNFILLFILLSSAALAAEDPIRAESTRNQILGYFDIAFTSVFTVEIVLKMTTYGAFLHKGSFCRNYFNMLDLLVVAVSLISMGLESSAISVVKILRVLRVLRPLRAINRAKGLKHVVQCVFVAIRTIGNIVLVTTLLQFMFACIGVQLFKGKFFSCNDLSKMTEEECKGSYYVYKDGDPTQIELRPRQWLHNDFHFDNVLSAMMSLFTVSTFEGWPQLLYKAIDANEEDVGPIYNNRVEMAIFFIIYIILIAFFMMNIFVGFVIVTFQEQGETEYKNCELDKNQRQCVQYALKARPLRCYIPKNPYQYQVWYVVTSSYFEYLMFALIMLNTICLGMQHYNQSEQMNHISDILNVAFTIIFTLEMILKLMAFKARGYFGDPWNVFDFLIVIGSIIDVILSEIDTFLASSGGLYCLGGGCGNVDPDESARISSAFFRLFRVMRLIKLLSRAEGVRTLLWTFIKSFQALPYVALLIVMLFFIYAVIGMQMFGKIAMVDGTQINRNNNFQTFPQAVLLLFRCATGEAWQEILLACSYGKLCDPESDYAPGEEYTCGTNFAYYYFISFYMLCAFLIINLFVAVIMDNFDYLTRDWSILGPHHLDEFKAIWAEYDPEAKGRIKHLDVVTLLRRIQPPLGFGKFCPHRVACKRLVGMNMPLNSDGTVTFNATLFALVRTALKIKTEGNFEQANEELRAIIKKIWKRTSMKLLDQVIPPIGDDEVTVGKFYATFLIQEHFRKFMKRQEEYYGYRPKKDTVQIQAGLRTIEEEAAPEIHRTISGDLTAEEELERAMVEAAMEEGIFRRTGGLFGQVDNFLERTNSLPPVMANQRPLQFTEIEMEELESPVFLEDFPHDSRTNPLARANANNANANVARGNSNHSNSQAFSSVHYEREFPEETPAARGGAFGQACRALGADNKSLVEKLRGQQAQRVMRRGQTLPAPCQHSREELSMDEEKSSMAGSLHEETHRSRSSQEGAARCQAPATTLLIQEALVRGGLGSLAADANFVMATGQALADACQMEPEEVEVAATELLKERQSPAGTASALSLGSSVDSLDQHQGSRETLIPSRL

## OC(COc1ccc(F)cc1)CN1CCN(CCCC(c2ccc(F)cc2)c2ccc(F)cc2)CC1 (single isomer, unassigned; (+)) [Example 30, (+)-1[4,4-bis(4-fluorophenyl)butyl]-4-[2-hydroxy-3(4-fluorophenoxy)propyl]piperazine]
[1]
  ED50: 17 mg/kg
Calcium channel
  Ki: 10 nM
[2]
  Test 1 ED 50% (dose which increases survival time of the animals by 50%), hypoxia: 4.0 mg/kg

## OC(COc1ccc(F)cc1)CN1CCN(CCC(c2ccccc2)c2ccccc2)CC1 (single isomer, unassigned; (+)) [Example 32]
[1]
  Test 2 ED 50% (dose which increases survival time of the animals by 50%), global ischemia: 9.5 mg/kg
Calcium channel
  Ki: 249 nM
[2]
  Test 1 ED 50% (dose which increases survival time of the animals by 50%), hypoxia: 4.2 mg/kg

## OC(COc1ccc(F)cc1)CN1CCN(CCCC(c2ccc(F)cc2)c2ccc(F)cc2)CC1 (single isomer, unassigned; (-)) [Example 29, (-)-1[4,4-bis(4-fluorophenyl)butyl]-4-[2-hydroxy-3(4-fluorophenoxy)propyl]piperazine]
[1]
  Test 2 ED 50% (dose which increases survival time of the animals by 50%), global ischemia: 13 mg/kg
Calcium channel
  Ki: 9 nM
[2]
  Test 1 ED 50% (dose which increases survival time of the animals by 50%), hypoxia: 1.6 mg/kg

## OC(COc1ccc(F)cc1)CN1CCN(CCC(c2ccccc2)c2ccccc2)CC1 (single isomer, unassigned; (-)) [Example 31]
[1]
  ED50: 9.3 mg/kg
Calcium channel
  Ki: 149 nM
[2]
  ED50: 4.1 mg/kg

## OC(COc1ccc(Cl)cc1)CN1CCN(CCCC(c2ccc(F)cc2)c2ccc(F)cc2)CC1 (centres unmarked) [Example 1, 1-[4,4-bis(4-Fluorophenyl)butyl]-4-[2-hydroxy-3(4-chlorophenoxy)propyl]piperazine]
[1]
  ED50: 27 mg/kg
Calcium channel
  Ki: 8 nM
[2]
  ED50: 11 mg/kg

## OC(COc1ccc(F)cc1)CN1CCN(CCCC(c2ccc(F)cc2)c2ccc(F)cc2)CC1 (centres unmarked) [Example 2, 1-[4,4-bis(4-fluorophenyl)butyl]-4-[2-hydroxy-3(4-fluorophenoxy)propyl]piperazine]
[1]
  ED50: 20 mg/kg
Calcium channel
  Ki: 9.1 nM
[2]
  ED50: 11 mg/kg

## OC(COc1ccccc1)CN1CCN(CCCC(c2ccc(F)cc2)c2ccc(F)cc2)CC1 (centres unmarked) [Example 3, 1-[4,4-bis(4-fluorophenyl)butyl]-4-[2-hydroxy-3-phenoxypropyl]piperazine]
[1]
  ED50: 13 mg/kg
Calcium channel
  Ki: 8 nM
[2]
  ED50: 10 mg/kg

## OC(COc1ccccc1)CN1CCN(CCCC(c2ccccc2)c2ccccc2)CC1 (centres unmarked) [Example 4, 1-[4,4-diphenylbutyl]-4-[2-hydroxy-3-phenoxypropyl]-piperazine]
[1]
  ED50: 8.6 mg/kg
Calcium channel
  Ki: 18 nM
[2]
  ED50: 6.6 mg/kg

## OC(COc1ccccc1)CN1CCN(CCC(c2ccccc2)c2ccccc2)CC1 (centres unmarked) [Example 7, 1-[3,3-diphenylpropyl]-4-[2-hydroxy-3-phenoxypropyl]piperazine]
[1]
  ED50: 10 mg/kg
Calcium channel
  Ki: 280 nM
[2]
  ED50: 4.6 mg/kg

## OC(COc1ccc(Cl)cc1)CN1CCN(CCC(c2ccccc2)c2ccccc2)CC1 (centres unmarked) [Example 8, 1-[3,3-diphenylpropyl]-4-[2-hydroxy-3(4-chlorophenoxy)propyl]piperazine]
[1]
  ED50: 13 mg/kg
Calcium channel
  Ki: 160 nM
[2]
  ED50: 5 mg/kg

## OC(COc1ccc(Cl)cc1)CN1CCN(CC(c2ccccc2)c2ccccc2)CC1 (centres unmarked) [Example 9, 1-[2,2-diphenylethyl]-4-[2-hydroxy-3-(4-chlorophenoxy)propyl]piperazine]
[1]
  ED50: 12 mg/kg
Calcium channel
  Ki: 30 nM
[2]
  ED50: 7.3 mg/kg

## OC(COc1cccc(C(F)(F)F)c1)CN1CCN(CCCC(c2ccc(F)cc2)c2ccc(F)cc2)CC1 (centres unmarked) [Example 11, 1-[4,4-bis(4-fluorophenyl)butyl]-4-[2-hydroxy-3(3-trifluoromethylphenoxy)propyl]piperazine]
[1]
  ED50: 46 mg/kg
Calcium channel
  Ki: 8 nM
[2]
  ED50: 4.9 mg/kg

## OC(COc1ccc(Cl)c(Cl)c1)CN1CCN(CCCC(c2ccc(F)cc2)c2ccc(F)cc2)CC1 (centres unmarked) [Example 12, 1-[4,4-bis(4-fluorophenyl)butyl]-4-[2-hydroxy-3-(3,4-dichlorophenoxy)propyl]piperazine]
[1]
  ED50: 45 mg/kg
Calcium channel
  Ki: 16 nM
[2]
  ED50: 4.7 mg/kg

## OC(COc1ccccc1Cl)CN1CCN(CCCC(c2ccc(F)cc2)c2ccc(F)cc2)CC1 (centres unmarked) [Example 13, 1-[4,4-bis(4-fluorophenyl)butyl]-4-[2-hydroxy-3-(c-chlorophenoxy)propyl]piperazine]
[1]
  Test 2 ED 50% (dose which increases survival time of the animals by 50%), global ischemia: 39 mg/kg
Calcium channel
  Ki: 10 nM
[2]
  Test 1 ED 50% (dose which increases survival time of the animals by 50%), hypoxia: 6.9 mg/kg

## O=[N+]([O-])c1ccc(OCC(O)CN2CCN(CCCC(c3ccc(F)cc3)c3ccc(F)cc3)CC2)cc1 (centres unmarked) [Example 16, 1-[4,4-bis(4-fluorophenyl)butyl]-4-[2-hydroxy-3-(4-nitrophenoxy)propyl]piperazine]
[1]
  ED50: 38 mg/kg
Calcium channel
  Ki: 11 nM
[2]
  ED50: 5.5 mg/kg

## N#Cc1ccccc1OCC(O)CN1CCN(CCCC(c2ccc(F)cc2)c2ccc(F)cc2)CC1 (centres unmarked) [Example 17, 1-[4,4-bis(4-fluorophenyl)butyl]-4-[2-hydroxy-3-(2-cyanophenoxy)propyl]piperazine]
[1]
  ED50: 27 mg/kg
Calcium channel
  Ki: 10 nM
[2]
  ED50: 16 mg/kg

## OC(COc1ccc(F)cc1)CN1CCN(CCCC(c2ccccc2)c2ccccc2)CC1 (centres unmarked) [Example 22, 1-[4,4-diphenylbutyl]-4-[2-hydroxy-3-(4-fluorophenoxy)propyl]piperazine]
[1]
  ED50: 8.8 mg/kg
Calcium channel
  Ki: 15 nM
[2]
  ED50: 6 mg/kg

## OC(COc1ccc(Cl)c(Cl)c1)CN1CCN(CCCC(c2ccccc2)c2ccccc2)CC1 (centres unmarked) [Example 23, 1-[4,4-diphenylbutyl]-4-[2-hydroxy-3-(3,4-dichlorophenoxy)propyl]piperazine]
[1]
  ED50: 41 mg/kg
Calcium channel
  Ki: 22 nM
[2]
  ED50: 8.6 mg/kg

## Cc1ccc(C(CCCN2CCN(CC(O)COc3ccc(F)cc3)CC2)c2ccc(C)cc2)cc1 (centres unmarked) [Example 24, 1-[4,4-bis(4-methylphenyl)butyl]-4-[2-hydroxy-3-(4-fluorophenoxy)propyl]piperazine]
[1]
  ED50: 40 mg/kg
Calcium channel
  Ki: 12 nM
[2]
  ED50: 23 mg/kg

## OC(COc1ccc(F)cc1)CN1CCN(CCCC(c2cccc(F)c2)c2cccc(F)c2)CC1 (centres unmarked) [Example 27, 1-[4,4-bis(3-fluorophenyl)butyl]-4-[2-hydroxy-3-(4-fluorophenoxy)propyl]piperazine]
[1]
  ED50: 29 mg/kg
Calcium channel
  Ki: 22 nM
[2]
  ED50: 14 mg/kg

## OC(COc1ccc(F)cc1)CN1CCCN(CCCC(c2ccc(F)cc2)c2ccc(F)cc2)CC1 (centres unmarked) [Example 33, 1-[4,4-bis(4-fluorophenyl)butyl]-4-(2-hydroxy-3(4-fluorophenoxy)propyl]homopiperazine]
[1]
  ED50: 31 mg/kg
Calcium channel
  Ki: 13 nM
[2]
  ED50: 4.8 mg/kg

## OC(CSc1ccc(F)cc1)CN1CCN(CCCC(c2ccc(F)cc2)c2ccc(F)cc2)CC1 (centres unmarked) [Example 34, 1-[4,4-bis(4-fluorophenyl)butyl]-4-[2-hydroxy-3-(4-fluoro-thiophenoxy)propyl]piperazine]
[1]
  ED50: 28 mg/kg
Calcium channel
  Ki: 9 nM
[2]
  ED50: 9 mg/kg

## OC(CSc1ccccc1)CN1CCN(CCC(c2ccccc2)c2ccccc2)CC1 (centres unmarked) [Example 35]
[1]
  ED50: 14 mg/kg
Calcium channel
  Ki: 159 nM
[2]
  ED50: 8.7 mg/kg

## Fc1ccc(C(c2ccc(F)cc2)N2CCN(C/C=C/c3ccccc3)CC2)cc1 [flunarizine, reference compound]
[1]
  ED50: 26.5 mg/kg
[2]
  ED50: > 100 mg/kg

## Cc1cccc(C)c1NC(=O)CN1CCN(CCCC(c2ccc(F)cc2)c2ccc(F)cc2)CC1 [lidoflazine, reference compound]
[1]
  ED50: > 46 mg/kg
Calcium channel
  Ki: 20 nM
[2]
  ED50: 10 mg/kg
